For 26 compounds, IC50 results are on record in patent US20160297833A1, “THIENOPYRIMIDINES AS MKNK1 AND MKNK2 INHIBITORS” (BAYER PHARMA AKTIENGESELLSCHAFT, priority 2013, published 2016).

Each structure is given as a SMILES string.

In this assay the target is T1, human full-length MKNK1 (Homo sapiens, UniProt Q9BUB5, T385D).
T1 construct: GST (N); purchased Carna Biosciences 02-145; host or cells: insect cells (baculovirus expression system)
T1 sequence (Q9BUB5 1-424 isoform Q9BUB5-2 T344D): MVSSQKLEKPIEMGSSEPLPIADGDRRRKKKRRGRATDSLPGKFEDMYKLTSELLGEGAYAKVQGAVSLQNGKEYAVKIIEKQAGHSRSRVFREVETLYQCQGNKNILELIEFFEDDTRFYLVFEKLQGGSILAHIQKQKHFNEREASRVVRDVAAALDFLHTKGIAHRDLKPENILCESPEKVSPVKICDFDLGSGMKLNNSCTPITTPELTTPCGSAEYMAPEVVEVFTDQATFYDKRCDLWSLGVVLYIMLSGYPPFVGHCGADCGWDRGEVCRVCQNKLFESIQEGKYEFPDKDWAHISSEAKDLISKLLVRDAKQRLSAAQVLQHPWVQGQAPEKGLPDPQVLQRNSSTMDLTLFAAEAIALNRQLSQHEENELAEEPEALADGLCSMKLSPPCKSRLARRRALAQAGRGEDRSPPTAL
The experiment in a line: MKNK1 kinase high ATP assay (TR-FRET). The assay is classed as biochemical. To be noted: Table 1; MKNK1 kinase high ATP assay, 2 mM ATP; read-out: MKNK1 IC50. Summed up:
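Full-length human MKNK1 (T385D) preincubated 15 min at 22 °C with compound in HEPES pH 7.5/MgCl2/DTT buffer; reaction with 2 mM ATP (final) and 0.06 μM biotinylated peptide (final), 30 min at 22 °C.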
For orientation: IC50 means the concentration that gives 50% inhibition. `CSc1cc2[nH]ncc2cc1Nc1ncnc2sc3c(c12)CC[C@H](C(=O)N1C[C@H](C)O[C@@H](C)C1)C3` [Example 246, [(2S,6S)-2,6-Dimethylmorpholin-4-yl][(7S)-4-{[6-(methylsulfanyl)-1H-indazol-5-yl]amino}-5,6,7,8-tetrahydro[1]benzothieno[2,3-d]pyrimidin-7-yl]methanone]: the 50% inhibitory concentration (IC50) was determined as 5.3 nM.
The result for `COc1cc2[nH]ncc2cc1Nc1ncnc2sc3c(c12)CC[C@H](C(=O)N1CCSCC1)C3` [Example 207, {(7S)-4-[(6-methoxy-1H-indazol-5-yl)amino]-5,6,7,8-tetrahydro[1]benzothieno[2,3-d]pyrimidin-7-yl}(thiomorpholin-4-yl)methanone] reads 0.2 nM.
The result for `COc1cc2[nH]ncc2cc1Nc1ncnc2sc3c(c12)CC[C@H](C(=O)N1CC(F)C1)C3` [Example 163, (3-fluoroazetidin-1-yl){(7S)-4-[(6-methoxy-1H-indazol-5-yl)amino]-5,6,7,8-tetrahydro[1]benzothieno[2,3-d]pyrimidin-7-yl}methanone] reads 0.6 nM.
Under `CCCN(C)C(=O)[C@H]1CCc2c(sc3ncnc(Nc4cc5cn[nH]c5cc4N4CCC(N(C)C)CC4)c23)C1` [Example 156, (7S)-4-({6-[4-(Dimethylamino)piperidin-1-yl]-1H-indazol-5-yl}amino)-N-methyl-N-propyl-5,6,7,8-tetrahydro[1]benzothieno[2,3-d]pyrimidine-7-carboxamide] stands 10.7 nM; under `CCN(CCOC)C(=O)[C@H]1CCc2c(sc3ncnc(Nc4cc5cn[nH]c5cc4N4CCC(N(C)C)CC4)c23)C1` [Example 157, (7S)-4-({6-[4-(Dimethylamino)piperidin-1-yl]-1H-indazol-5-yl}amino)-N-ethyl-N-(2-methoxyethyl)-5,6,7,8-tetrahydro[1]benzothieno[2,3-d]pyrimidine-7-carboxamide], 21.6 nM.
Consider `C[C@@H]1CN(C(=O)[C@H]2CCc3c(sc4ncnc(Nc5cc6cn[nH]c6cc5N(C)C)c34)C2)C[C@H](C)O1` [Example 189, [(7S)-4-{[6-(Dimethylamino)-1H-indazol-5-yl]amino}-5,6,7,8-tetrahydro[1]benzothieno[2,3-d]pyrimidin-7-yl][(2R,6S)-2,6-dimethylmorpholin-4-yl]methanone], for which the IC50 came to 0.1 nM.
As for `CN(C)C(=O)[C@H]1CCc2c(sc3ncnc(Nc4cc5cn[nH]c5cc4OCCN4CCCC4)c23)C1` [Example 112, (7S)—N,N-Dimethyl-4-({6-[2-(pyrrolidin-1-yl)ethoxy]-1H-indazol-5-yl}amino)-5,6,7,8-tetrahydro[1]benzothieno[2,3-d]pyrimidine-7-carboxamide], the IC50 amounted to 76.3 nM.
Consider `C[C@H]1CN(C(=O)[C@H]2CCc3c(sc4ncnc(Nc5cc6cn[nH]c6cc5F)c34)C2)C[C@H](C)O1` [Example 225, [(2S,6S)-2,6-Dimethylmorpholin-4-yl]{(7S)-4-[(6-fluoro-1H-indazol-5-yl)amino]-5,6,7,8-tetrahydro[1]benzothieno[2,3-d]pyrimidin-7-yl}methanone], for which the 50% inhibitory concentration (IC50) turned out to be 8.7 nM.
The result for `CC(C)Oc1cc2[nH]ncc2cc1Nc1ncnc2sc3c(c12)CC[C@H](C(=O)N1C[C@H](O)[C@@H](O)C1)C3` [Example 92, [(3S,4S)-3,4-Dihydroxypyrrolidin-1-yl][(7S)-4-{[6-(propan-2-yloxy)-1H-indazol-5-yl]amino}-5,6,7,8-tetrahydro[1]benzothieno[2,3-d]pyrimidin-7-yl]methanone] reads 0.2 nM; that for `CN(C)C(=O)[C@H]1CCc2c(sc3ncnc(Nc4cc5cn[nH]c5cc4NCC(C)(C)O)c23)C1` [Example 100, (7S)-4-({6-[(2-Hydroxy-2-methylpropyl)amino]-1H-indazol-5-yl}amino)-N,N-dimethyl-5,6,7,8-tetrahydro[1]benzothieno[2,3-d]pyrimidine-7-carboxamide], 882 nM; that for `CCCOc1cc2[nH]ncc2cc1Nc1ncnc2sc3c(c12)CC[C@H](C(=O)N1CC(C)(O)C1)C3` [Example 95, (3-Hydroxy-3-methylazetidin-1-yl){(7S)-4-[(6-propoxy-1H-indazol-5-yl)amino]-5,6,7,8-tetrahydro[1]benzothieno[2,3-d]pyrimidin-7-yl}methanone], 2.3 nM.
In the case of `COc1cc2[nH]ncc2cc1Nc1ncnc2sc3c(c12)CC[C@H](C(=O)N1CCCCO1)C3` [Example 212, {(7S)-4-[(6-Methoxy-1H-indazol-5-yl)amino]-5,6,7,8-tetrahydro[1]benzothieno[2,3-d]pyrimidin-7-yl}(1,2-oxazinan-2-yl)methanone], the IC50 came to 0.3 nM.
The result for `COc1cc2[nH]ncc2cc1Nc1ncnc2sc3c(c12)CC[C@H](C(=O)N(C)C)C3` [Example 20, (7S)-4-[(6-Methoxy-1H-indazol-5-yl)amino]-N,N-dimethyl-5,6,7,8-tetrahydro[1]benzothieno[2,3-d]pyrimidine-7-carboxamide] reads 1 nM.
For `CC(C)OC(=O)NCCOc1cc2[nH]ncc2cc1Nc1ncnc2sc3c(c12)CC[C@H](C(=O)N(C)C)C3` [Example 260, Propan-2-yl {2-[(5-{[(7S)-7-(dimethylcarbamoyl)-5,6,7,8-tetrahydro[1]benzothieno[2,3-d]pyrimidin-4-yl]amino}-1H-indazol-6-yl)oxy]ethyl}carbamate], the half-maximal inhibitory concentration (IC50) worked out at 0.2 nM.
For the compound `COc1cc2[nH]ncc2cc1Nc1ncnc2sc3c(c12)CC[C@H](C(=O)N1CCCC(F)C1)C3` (mixture of isomers) [Example 205, [(3RS)-3-fluoropiperidin-1-yl]{(7S)-4-[(6-methoxy-1H-indazol-5-yl)amino]-5,6,7,8-tetrahydro[1]benzothieno[2,3-d]pyrimidin-7-yl}methanone], the IC50 turned out to be 0.5 nM.
The result for `CSc1cc2[nH]ncc2cc1Nc1ncnc2sc3c(c12)CC[C@H](C(=O)N(C)CCC(F)(F)F)C3` [Example 249, (7S)—N-Methyl-4-{[6-(methylsulfanyl)-1H-indazol-5-yl]amino}-N-(3,3,3-trifluoropropyl)-5,6,7,8-tetrahydro[1]benzothieno[2,3-d]pyrimidine-7-carboxamide] reads 2.3 nM; that for `CSc1cc2[nH]ncc2cc1Nc1ncnc2sc3c(c12)CC[C@H](C(=O)N1CC(N(C)C)C1)C3` [Example 285, [3-(dimethylamino)azetidin-1-yl][(7S)-4-{[6-(methylsulfanyl)-1H-indazol-5-yl]amino}-5,6,7,8-tetrahydro[1]benzothieno[2,3-d]pyrimidin-7-yl]methanone], 1.8 nM.
Consider `COc1cc2[nH]ncc2cc1Nc1ncnc2sc3c(c12)CC[C@H](C(=O)N1CC(N(C)C)C1)C3` [Example 44, [3-(Dimethylamino)azetidin-1-yl]{(7S)-4-[(6-methoxy-1H-indazol-5-yl)amino]-5,6,7,8-tetrahydro[1]benzothieno[2,3-d]pyrimidin-7-yl}methanone], for which the 50% inhibitory concentration (IC50) was found to be 0.2 nM.
The result for `CCN(C)C(=O)[C@H]1CCc2c(sc3ncnc(Nc4cc5cn[nH]c5cc4N4CCC(N(C)C)CC4)c23)C1` [Example 158, (7S)-4-({6-[4-(Dimethylamino)piperidin-1-yl]-1H-indazol-5-yl}amino)-N-ethyl-N-methyl-5,6,7,8-tetrahydro[1]benzothieno[2,3-d]pyrimidine-7-carboxamide] reads 10 nM; that for `CC1(O)CN(C(=O)[C@H]2CCc3c(sc4ncnc(Nc5ccc6[nH]ncc6c5)c34)C2)C1` [Example 17, (3-Hydroxy-3-methylazetidin-1-yl)[(7S)-4-(1H-indazol-5-ylamino)-5,6,7,8-tetrahydro[1]benzothieno[2,3-d]pyrimidin-7-yl]methanone], 9.4 nM.
The result for `CCOc1cc2[nH]ncc2cc1Nc1ncnc2sc3c(c12)CC[C@H](C(=O)N1CC(N(C)C)C1)C3` [Example 218, [3-(Dimethylamino)azetidin-1-yl]{(7S)-4-[(6-ethoxy-1H-indazol-5-yl)amino]-5,6,7,8-tetrahydro[1]benzothieno[2,3-d]pyrimidin-7-yl}methanone] reads 0.2 nM; that for `CSc1cc2[nH]ncc2cc1Nc1ncnc2sc3c(c12)CC[C@H](C(=O)N(C)C)C3` [Example 106, (7S)—N,N-Dimethyl-4-{[6-(methylsulfanyl)-1H-indazol-5-yl]amino}-5,6,7,8-tetrahydro[1]benzothieno[2,3-d]pyrimidine-7-carboxamide], 4.6 nM.
For `CN(C)C(=O)[C@H]1CCc2c(sc3ncnc(Nc4cc5cn[nH]c5cc4OCCCN4CC(F)C4)c23)C1` [Example 276, (7S)-4-({6-[3-(3-Fluoroazetidin-1-yl)propoxy]-1H-indazol-5-yl}amino)-N,N-dimethyl-5,6,7,8-tetrahydro[1]benzothieno[2,3-d]pyrimidine-7-carboxamide], the IC50 turned out to be 10.2 nM.
Under `C[C@@H](CN)Oc1cc2[nH]ncc2cc1Nc1ncnc2sc3c(c12)CC[C@H](C(=O)N(C)C)C3` [Example 141, (7S)-4-[(6-{[(25)-1-Aminopropan-2-yl]oxy}-1H-indazol-5-yl)amino]-N,N-dimethyl-5,6,7,8-tetrahydro[1]benzothieno[2,3-d]pyrimidine-7-carboxamide] stands 3.4 nM; under `CCOc1cc2[nH]ncc2cc1Nc1ncnc2sc3c(c12)CC[C@H](C(=O)N1CCC(N(C)C)CC1)C3` [Example 122, [4-(Dimethylamino)piperidin-1-yl]{(7S)-4-[(6-ethoxy-1H-indazol-5-yl)amino]-5,6,7,8-tetrahydro[1]benzothieno[2,3-d]pyrimidin-7-yl}methanone], 0.2 nM.
Under `CN(C)C(=O)[C@H]1CCc2c(sc3ncnc(Nc4cc5cn[nH]c5cc4O)c23)C1` [Example 96, (7S)-4-[(6-Hydroxy-1H-indazol-5-yl)amino]-N,N-dimethyl-5,6,7,8-tetrahydro[1]benzothieno[2,3-d]pyrimidine-7-carboxamide] stands 0.7 nM.
